Results from the NIST ThermoML archive (doi:10.1016/j.jct.2009.04.002).
“And” between values parts separate entries of the source, which are not always exact repeats. Equal values may be shown once. Numbers after ± are expanded uncertainties.

Conditions: Liquid

Structure (SMILES): CC(C)CCCCCCCOC(=O)c1ccccc1C(=O)OCCCCCCCC(C)C
- mass density (333.15 K, 10000 kPa, Vibrating tube method): 944.8 ± 1.4 kg/m3 and 945.3 ± 1.4 kg/m3
- viscosity (333.15 K, 20000 kPa, Falling or rolling sphere viscometry): 23.5 ± 1.9 mPa·s and 22.4 ± 1.8 mPa·s and 23.2 ± 1.9 mPa·s
- mass density (333.15 K, 20000 kPa, Vibrating tube method): 951 ± 1.4 kg/m3 and 951.5 ± 1.4 kg/m3 and 950.9 ± 1.4 kg/m3
- viscosity (333.15 K, 30000 kPa, Falling or rolling sphere viscometry): 28.2 ± 2.3 mPa·s and 26.8 ± 2.2 mPa·s and 27.8 ± 2.3 mPa·s
- mass density (333.15 K, 30000 kPa, Vibrating tube method): 956.7 ± 1.4 kg/m3 and 957.1 ± 1.4 kg/m3 and 956.6 ± 1.4 kg/m3
- viscosity (333.15 K, 40000 kPa, Falling or rolling sphere viscometry): 33.7 ± 2.7 mPa·s and 31.9 ± 2.6 mPa·s and 33.1 ± 2.7 mPa·s
- mass density (333.15 K, 40000 kPa, Vibrating tube method): 962.1 ± 1.4 kg/m3 and 962.5 ± 1.4 kg/m3 and 962 ± 1.4 kg/m3
- viscosity (333.15 K, 50000 kPa, Falling or rolling sphere viscometry): 40 ± 3.2 mPa·s and 37.8 ± 3.1 mPa·s and 39.3 ± 3.2 mPa·s
- mass density (333.15 K, 50000 kPa, Vibrating tube method): 967.2 ± 1.4 kg/m3 and 967.6 ± 1.4 kg/m3 and 967.1 ± 1.4 kg/m3
- viscosity (333.15 K, 60000 kPa, Falling or rolling sphere viscometry): 47.5 ± 3.8 mPa·s and 44.5 ± 3.6 mPa·s and 46.6 ± 3.8 mPa·s
- mass density (333.15 K, 60000 kPa, Vibrating tube method): 972.1 ± 1.4 kg/m3 and 972.5 ± 1.4 kg/m3 and 972 ± 1.4 kg/m3
- mass density (333.15 K, 70000 kPa, Vibrating tube method): 976.7 ± 1.4 kg/m3 and 977.1 ± 1.4 kg/m3 and 976.6 ± 1.4 kg/m3
- viscosity (333.15 K, Rotational Automated Viscometer): 15.79 ± 0.33 mPa·s and 16.02 ± 0.32 mPa·s and 15.97 ± 0.32 mPa·s
- mass density (333.15 K, SVM3000 rotational viscometer): 938.7 ± 13 kg/m3 and 938.3 ± 13 kg/m3
- viscosity (338.15 K, Rotational Automated Viscometer): 13.21 ± 0.27 mPa·s and 13.4 ± 0.27 mPa·s and 13.36 ± 0.27 mPa·s
- mass density (338.15 K, SVM3000 rotational viscometer): 935.1 ± 13 kg/m3 and 934.7 ± 13 kg/m3
- viscosity (343.15 K, Rotational Automated Viscometer): 11.18 ± 0.23 mPa·s and 11.34 ± 0.23 mPa·s and 11.31 ± 0.23 mPa·s
- mass density (343.15 K, SVM3000 rotational viscometer): 931.6 ± 13 kg/m3 and 931.1 ± 13 kg/m3
- mass density (348.15 K, 100 kPa, Vibrating tube method): 927.9 ± 1.4 kg/m3 and 928.3 ± 1.4 kg/m3 and 927.7 ± 1.4 kg/m3
- mass density (348.15 K, 1000 kPa, Vibrating tube method): 928.5 ± 1.4 kg/m3 and 929 ± 1.4 kg/m3 and 928.4 ± 1.4 kg/m3
- mass density (348.15 K, 5000 kPa, Vibrating tube method): 931.4 ± 1.4 kg/m3 and 931.8 ± 1.4 kg/m3 and 931.2 ± 1.4 kg/m3
- mass density (348.15 K, 10000 kPa, Vibrating tube method): 934.8 ± 1.4 kg/m3 and 935.3 ± 1.4 kg/m3 and 934.7 ± 1.4 kg/m3
- mass density (348.15 K, 20000 kPa, Vibrating tube method): 941.3 ± 1.4 kg/m3 and 941.8 ± 1.4 kg/m3 and 941.2 ± 1.4 kg/m3
- mass density (348.15 K, 30000 kPa, Vibrating tube method): 947.3 ± 1.4 kg/m3 and 947.8 ± 1.4 kg/m3
- mass density (348.15 K, 40000 kPa, Vibrating tube method): 953 ± 1.4 kg/m3 and 953.5 ± 1.4 kg/m3 and 952.9 ± 1.4 kg/m3
- mass density (348.15 K, 50000 kPa, Vibrating tube method): 958.4 ± 1.4 kg/m3 and 958.9 ± 1.4 kg/m3
- mass density (348.15 K, 60000 kPa, Vibrating tube method): 963.6 ± 1.4 kg/m3 and 964 ± 1.4 kg/m3 and 963.5 ± 1.4 kg/m3
- mass density (348.15 K, 70000 kPa, Vibrating tube method): 968.4 ± 1.4 kg/m3 and 968.8 ± 1.4 kg/m3 and 968.3 ± 1.4 kg/m3
- viscosity (348.15 K, Rotational Automated Viscometer): 9.561 ± 0.2 mPa·s and 9.696 ± 0.2 mPa·s and 9.685 ± 0.19 mPa·s
- mass density (348.15 K, SVM3000 rotational viscometer): 928 ± 13 kg/m3 and 927.6 ± 13 kg/m3
- viscosity (353.15 K, 100 kPa, Falling or rolling sphere viscometry): 8.42 ± 0.68 mPa·s and 8.04 ± 0.65 mPa·s and 8.35 ± 0.68 mPa·s
- viscosity (353.15 K, 1000 kPa, Falling or rolling sphere viscometry): 8.54 ± 0.69 mPa·s and 8.16 ± 0.66 mPa·s and 8.48 ± 0.69 mPa·s
- viscosity (353.15 K, 5000 kPa, Falling or rolling sphere viscometry): 9.14 ± 0.74 mPa·s and 8.7 ± 0.7 mPa·s and 9.06 ± 0.73 mPa·s
- viscosity (353.15 K, 10000 kPa, Falling or rolling sphere viscometry): 9.92 ± 0.8 mPa·s and 9.43 ± 0.76 mPa·s and 9.83 ± 0.79 mPa·s
- viscosity (353.15 K, 20000 kPa, Falling or rolling sphere viscometry): 11.7 ± 0.9 mPa·s and 11 ± 0.9 mPa·s and 11.5 ± 0.9 mPa·s
- viscosity (353.15 K, 30000 kPa, Falling or rolling sphere viscometry): 13.7 ± 1.1 mPa·s and 12.9 ± 1 mPa·s and 13.5 ± 1.1 mPa·s
- viscosity (353.15 K, 40000 kPa, Falling or rolling sphere viscometry): 16 ± 1.3 mPa·s and 15.1 ± 1.2 mPa·s and 15.8 ± 1.3 mPa·s
- viscosity (353.15 K, 50000 kPa, Falling or rolling sphere viscometry): 18.5 ± 1.5 mPa·s and 17.5 ± 1.4 mPa·s and 18.3 ± 1.5 mPa·s
- viscosity (353.15 K, 60000 kPa, Falling or rolling sphere viscometry): 21.5 ± 1.7 mPa·s and 20.3 ± 1.6 mPa·s and 21.2 ± 1.7 mPa·s
- viscosity (353.15 K, Rotational Automated Viscometer): 8.257 ± 0.17 mPa·s and 8.376 ± 0.17 mPa·s and 8.37 ± 0.17 mPa·s
- mass density (353.15 K, SVM3000 rotational viscometer): 924.4 ± 13 kg/m3 and 924.1 ± 13 kg/m3
- viscosity (358.15 K, Rotational Automated Viscometer): 7.193 ± 0.15 mPa·s and 7.3 ± 0.15 mPa·s and 7.297 ± 0.15 mPa·s
- mass density (358.15 K, SVM3000 rotational viscometer): 920.7 ± 13 kg/m3 and 920.9 ± 13 kg/m3 and 920.6 ± 13 kg/m3
- viscosity (363.15 K, Rotational Automated Viscometer): 6.329 ± 0.13 mPa·s and 6.414 ± 0.13 mPa·s and 6.412 ± 0.13 mPa·s
- mass density (363.15 K, SVM3000 rotational viscometer): 917.2 ± 13 kg/m3 and 917.4 ± 13 kg/m3 and 917 ± 13 kg/m3
- viscosity (368.15 K, Rotational Automated Viscometer): 5.602 ± 0.12 mPa·s and 5.677 ± 0.11 mPa·s and 5.675 ± 0.11 mPa·s
- mass density (368.15 K, SVM3000 rotational viscometer): 913.7 ± 13 kg/m3 and 913.9 ± 13 kg/m3 and 913.5 ± 13 kg/m3
- viscosity (373.15 K, 100 kPa, Falling or rolling sphere viscometry): 5.05 ± 0.41 mPa·s and 4.8 ± 0.39 mPa·s and 5.09 ± 0.41 mPa·s
- mass density (373.15 K, 100 kPa, Vibrating tube method): 909.5 ± 10 kg/m3 and 910 ± 10 kg/m3 and 909.4 ± 10 kg/m3
- viscosity (373.15 K, 1000 kPa, Falling or rolling sphere viscometry): 5.12 ± 0.41 mPa·s and 4.87 ± 0.39 mPa·s and 5.16 ± 0.42 mPa·s
- mass density (373.15 K, 1000 kPa, Vibrating tube method): 911 ± 10 kg/m3 and 911.6 ± 10 kg/m3
- viscosity (373.15 K, 5000 kPa, Falling or rolling sphere viscometry): 5.44 ± 0.44 mPa·s and 5.17 ± 0.42 mPa·s and 5.47 ± 0.44 mPa·s
- mass density (373.15 K, 5000 kPa, Vibrating tube method): 914.3 ± 10 kg/m3 and 914.8 ± 10 kg/m3 and 914.2 ± 10 kg/m3
- viscosity (373.15 K, 10000 kPa, Falling or rolling sphere viscometry): 5.86 ± 0.47 mPa·s and 5.57 ± 0.45 mPa·s and 5.89 ± 0.47 mPa·s
- mass density (373.15 K, 10000 kPa, Vibrating tube method): 918.1 ± 10 kg/m3 and 918.6 ± 10 kg/m3 and 918 ± 10 kg/m3
- viscosity (373.15 K, 20000 kPa, Falling or rolling sphere viscometry): 6.79 ± 0.55 mPa·s and 6.44 ± 0.52 mPa·s and 6.8 ± 0.55 mPa·s
- mass density (373.15 K, 20000 kPa, Vibrating tube method): 925.3 ± 10 kg/m3 and 925.9 ± 10 kg/m3 and 925.2 ± 10 kg/m3
- viscosity (373.15 K, 30000 kPa, Falling or rolling sphere viscometry): 7.83 ± 0.63 mPa·s and 7.42 ± 0.6 mPa·s
- mass density (373.15 K, 30000 kPa, Vibrating tube method): 931.9 ± 10 kg/m3 and 932.5 ± 10 kg/m3
- viscosity (373.15 K, 40000 kPa, Falling or rolling sphere viscometry): 9 ± 0.73 mPa·s and 8.52 ± 0.69 mPa·s and 8.98 ± 0.72 mPa·s
- mass density (373.15 K, 40000 kPa, Vibrating tube method): 938.1 ± 10 kg/m3 and 938.7 ± 10 kg/m3
- viscosity (373.15 K, 50000 kPa, Falling or rolling sphere viscometry): 10.3 ± 0.8 mPa·s and 9.75 ± 0.79 mPa·s
- mass density (373.15 K, 50000 kPa, Vibrating tube method): 943.9 ± 10 kg/m3 and 944.6 ± 10 kg/m3 and 944 ± 10 kg/m3
- viscosity (373.15 K, 60000 kPa, Falling or rolling sphere viscometry): 11.7 ± 0.9 mPa·s and 11.1 ± 0.9 mPa·s
- mass density (373.15 K, 60000 kPa, Vibrating tube method): 949.5 ± 10 kg/m3 and 950.1 ± 10 kg/m3
- mass density (373.15 K, 70000 kPa, Vibrating tube method): 954.7 ± 10 kg/m3 and 955.2 ± 10 kg/m3 and 954.6 ± 10 kg/m3
- viscosity (373.15 K, Rotational Automated Viscometer): 4.989 ± 0.1 mPa·s and 5.059 ± 0.1 mPa·s and 5.057 ± 0.1 mPa·s
- mass density (373.15 K, SVM3000 rotational viscometer): 910.3 ± 13 kg/m3 and 910.5 ± 13 kg/m3 and 910 ± 13 kg/m3
- mass density (398.15 K, 100 kPa, Vibrating tube method): 892.2 ± 10 kg/m3 and 892.8 ± 10 kg/m3
- mass density (398.15 K, 1000 kPa, Vibrating tube method): 892.8 ± 10 kg/m3 and 893.5 ± 10 kg/m3 and 892.9 ± 10 kg/m3
- mass density (398.15 K, 5000 kPa, Vibrating tube method): 896.4 ± 10 kg/m3 and 896.9 ± 10 kg/m3 and 896.3 ± 10 kg/m3
- mass density (398.15 K, 10000 kPa, Vibrating tube method): 900.6 ± 10 kg/m3 and 901.1 ± 10 kg/m3 and 900.5 ± 10 kg/m3
- mass density (398.15 K, 20000 kPa, Vibrating tube method): 908.6 ± 10 kg/m3 and 909.1 ± 10 kg/m3 and 908.5 ± 10 kg/m3
- mass density (398.15 K, 30000 kPa, Vibrating tube method): 915.8 ± 10 kg/m3 and 916.4 ± 10 kg/m3
- mass density (398.15 K, 40000 kPa, Vibrating tube method): 922.5 ± 10 kg/m3 and 923.2 ± 10 kg/m3 and 922.6 ± 10 kg/m3
- mass density (398.15 K, 50000 kPa, Vibrating tube method): 928.8 ± 10 kg/m3 and 929.5 ± 10 kg/m3 and 928.9 ± 10 kg/m3
- mass density (398.15 K, 60000 kPa, Vibrating tube method): 934.8 ± 10 kg/m3 and 935.5 ± 10 kg/m3 and 934.9 ± 10 kg/m3
- mass density (398.15 K, 70000 kPa, Vibrating tube method): 940.4 ± 10 kg/m3 and 941 ± 10 kg/m3
